Active and inactive are the calls of the source. The calls are words filed in the database; no cut-off is given here.
Legend:
MIA PaCa-2 [1] = assay: Induction of apoptosis in human MIAPaCa2 cells at 10 uM after 48 hrs using propidium iodide/Annexin-V staining by flow cytometry relative to control; format: functional
MIA PaCa-2 [2] = assay: Induction of apoptosis in human MIAPaCa2 cells at 10 uM after 24 hrs using propidium iodide/Annexin-V staining by flow cytometry relative to control; format: functional
[3] = biological target: T1, DNA topoisomerase 1 (Homo sapiens) (UniProt P11387); assay: Inhibition of human topoisomerase 1-mediated supercoiled pUC19 DNA relaxation assessed as formation of open circle form after 45 mins using ethidium bromide staining by agarose gel electrophoresis
T1 sequence (whole entry): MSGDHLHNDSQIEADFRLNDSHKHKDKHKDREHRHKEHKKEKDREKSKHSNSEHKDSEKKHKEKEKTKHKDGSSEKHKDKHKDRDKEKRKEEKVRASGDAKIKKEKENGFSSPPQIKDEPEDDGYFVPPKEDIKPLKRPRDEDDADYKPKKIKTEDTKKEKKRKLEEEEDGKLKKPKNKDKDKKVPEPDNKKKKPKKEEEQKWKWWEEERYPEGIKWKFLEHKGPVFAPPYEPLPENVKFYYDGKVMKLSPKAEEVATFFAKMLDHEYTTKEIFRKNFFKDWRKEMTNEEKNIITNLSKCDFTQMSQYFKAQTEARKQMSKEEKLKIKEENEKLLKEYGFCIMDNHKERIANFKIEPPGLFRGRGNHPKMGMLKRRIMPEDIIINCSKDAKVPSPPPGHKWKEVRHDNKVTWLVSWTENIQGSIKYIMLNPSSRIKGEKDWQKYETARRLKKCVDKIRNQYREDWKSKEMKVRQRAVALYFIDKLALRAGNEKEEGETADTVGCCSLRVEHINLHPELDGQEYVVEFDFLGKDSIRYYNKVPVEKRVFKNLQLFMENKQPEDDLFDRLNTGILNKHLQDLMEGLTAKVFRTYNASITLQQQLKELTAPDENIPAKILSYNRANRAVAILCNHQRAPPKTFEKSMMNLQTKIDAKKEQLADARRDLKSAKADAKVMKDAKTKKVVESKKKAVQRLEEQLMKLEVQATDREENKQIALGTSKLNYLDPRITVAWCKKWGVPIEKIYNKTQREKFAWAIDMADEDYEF

HeLa = assay: Cell cycle arrest in human HeLa cells assessed as accumulation in S phase after 24 hrs using propidium iodide staining by flow cytometry; format: functional, cell-based
SW-620 [4] = assay: Induction of apoptosis in human SW620 cells at 10 uM after 24 hrs using propidium iodide/Annexin-V staining by flow cytometry relative to control; format: functional
SW-620 [5] = assay: Cell cycle arrest in human SW620 cells assessed as accumulation in G2/M phase at 10 uM after 48 hrs using propidium iodide staining by flow cytometry relative to control; format: functional
SW-620 [6] = assay: Cell cycle arrest in human SW620 cells assessed as accumulation in G1 phase at 10 uM after 48 hrs using propidium iodide staining by flow cytometry relative to control; format: functional
SW-620 [7] = assay: Cell cycle arrest in human SW620 cells assessed as accumulation in sub-G1 phase at 10 uM after 48 hrs using propidium iodide staining by flow cytometry relative to control; format: functional
SW-620 [8] = assay: Cell cycle arrest in human SW620 cells assessed as accumulation in G2/M phase at 5 uM after 48 hrs using propidium iodide staining by flow cytometry relative to control; format: functional
SW-620 [9] = assay: Cell cycle arrest in human SW620 cells assessed as accumulation in G1 phase at 10 uM after 24 hrs using propidium iodide staining by flow cytometry relative to control; format: functional
SW-620 [10] = assay: Cell cycle arrest in human SW620 cells assessed as accumulation in sub-G1 phase at 10 uM after 24 hrs using propidium iodide staining by flow cytometry relative to control; format: functional
SW-620 [11] = assay: Cell cycle arrest in human SW620 cells assessed as accumulation in G2/M phase at 5 uM after 24 hrs using propidium iodide staining by flow cytometry relative to control; format: functional
SW-620 [12] = assay: Cell cycle arrest in human SW620 cells assessed as accumulation in G1 phase at 5 uM after 24 hrs using propidium iodide staining by flow cytometry relative to control; format: functional
SW-620 [13] = assay: Cell cycle arrest in human SW620 cells assessed as accumulation in sub-G1 phase at 5 uM after 24 hrs using propidium iodide staining by flow cytometry relative to control; format: functional

| SMILES | Activity (MIA PaCa-2 [1]) | Activity (MIA PaCa-2 [2]) | inhibition [3] | Activity (HeLa) | Activity (SW-620 [4]) | Activity (SW-620 [5]) | Activity (SW-620 [6]) | Activity (SW-620 [7]) | Activity (SW-620 [8]) | Activity (SW-620 [9]) | Activity (SW-620 [10]) | Activity (SW-620 [11]) | Activity (SW-620 [12]) | Activity (SW-620 [13]) |
| --- | --- | --- | --- | --- | --- | --- | --- | --- | --- | --- | --- | --- | --- | --- |
| Cl.Cl.c1cc2nc(-c3ccc(-c4nc5ccc(C6=NCCN6)cc5s4)cc3)sc2cc1C1=NCCN1 | 4% | 5% | – | – | – | – | – | – | – | – | – | – | – | – |
| Cl.Cl.c1cc(-c2nc3ccc(C4=NCCN4)cc3s2)cc(-c2nc3ccc(C4=NCCN4)cc3s2)c1 | – | – | Active | Dose-dependent effect | 8% | 6.8% | 23.7% | 13.6% | 14.7% | 29.9% | 45.3% | 15.5% | 45.3% | 13.5% |

— ChEMBL document CHEMBL2380196, “New anticancer active and selective phenylene-bisbenzothiazoles: synthesis, antiproliferative evaluation and DNA binding” (Eur J Med Chem, 2013)
